Consider ten compounds from patent publication US6001853A, “Hydroxylamine compositions for the prevention or retardation of cataracts” (priority 1998, dated 1999).

Read-outs that look alike come from different tables or passages of the source.

In one data set the test system is experimental cataracts. The following applies: cited from earlier work.
The next data set concerns lens proteins. The following applies: in vitro; cited from earlier work.
Data set [1] relates to cataracts in x-ray irradiated rats. The following applies: cited from earlier work.
Data set [2] has as its system rat lenses. The data set can be described thus: Rubidium-86 accumulation by cultured rat lenses (H2O2 stress). The following applies: for prevention of decrement in Rb-86 accumulation associated with H2O2 exposure: 0.25 mM H2O2, agent added at beginning of assay; for effect on Rb-86 accumulation of control lenses: added to medium of control lenses at beginning of assay, no H2O2. The data set is classed as cell-based, Sprague-Dawley rat. The method, then:
(§1) Such assays are accepted as an indication of the in vivo effect of a drug in retarding the development of cataracts.
(§2) The techniques described in references 10 and 11 were used in this assay. Rat lenses used in these studies were obtained from Sprague-Dawley male rats. The lenses were incubated in 24-well clusters in modified TC-199 medium (prepared as described in Zigler and Hess, Exp. Eye Res. 41:67, 1985) and placed in a 37° C. incubator with a 95% air/5% CO2 humidified atmosphere. The lenses were incubated in about 2.0 ml of culture medium, which was adjusted to about 300 milliosmoles. The assays were usually of 22 hours duration, and tracer levels of ^86 Rb or tritiated choline were added at 18 hours so that the tracer was present during the last four hours of the assay.
Two potential anti-cataract agents were tested in this experiment: E-64 (a protease inhibitor) and pantetheine (a putative phase separation inhibitor) were added to the culture medium at the beginning of the assay.
(§3) The experiment was performed essentially as described for Example 2, except that TEMPOL-H was added at 3 or 4 mM or was added at 3 mM together with MPG at either 0.5 or 1 mM.

Data set [3] deals with rat lenses. Briefly: Tritiated choline accumulation by cultured rat lenses (H2O2 stress). The data set is classed as cell-based, Sprague-Dawley rat. Conditions: for reduction of the H2O2-induced decrement of tritiated choline concentration: 0.25 mM H2O2, MPG 1 mM, TEMPOL-H 5 mM. The method, then: as §1, §2
(§4) Rat lenses were cultured as described in reference 11 and Example 1. H2 O2 was added to experimental cultures to a concentration of 0.25 mM. Carnosine at 1 mM, MPG at 1 mM, or TEMPOL-H at 5 mM was added to some of the treated lenses at the beginning of the culture assay.
as §3

Data set [4] in a line: Systemic/ocular delivery of MPG by osmotic pump, detection in the eye. The format is in vivo, Sprague Dawley albino rats. Conditions: subcutaneous, intraperitoneal and ocular routes; 2 ml of 100 mM over 7 or 14 days. On the procedure: (§5) A 2 ml volume of 100 mM TEMPOL-H was provided in an ALZET osmotic pump, available from Alza Corporation of Palo Alto, Calif. The pump was programmed to deliver the 2 ml dose continuously (down an osmotic gradient) over a period of either 7 or 14 days.
The reducing agent MPG was also delivered to the subjects by subcutaneous, intraperitoneal and ocular routes, as described in Example 7, through an implanted osmotic pump. A 2 ml volume of 100 mM MPG was provided in the pump and delivered over a period of 7 days or 14 days.

For a further data set, the system named is cells. The following applies: reported by Mitchell and colleagues; cited from earlier work.
In data set [5] the test system is rat lenses. The format is cell-based. The following applies: 1.0 mM H2O2 plus 4 mM TEMPOL-H, 24 hours. The method, then: Lenses were cultured as in the above examples.
The next data set has as its system lens. The data set can be described thus: Lens penetration and redox state by EPR of lens homogenate. The data set is classed as in vitro ADME, rat.
Source text: TEMPOL-H is the reduced form of the nitroxide TEMPOL, which is a stable free radical detectable by electron paramagnetic resonance (EPR) spectroscopy, as in reference 12. TEMPOL-H can be readily converted to TEMPOL by oxidation with ferricyanide, and then can be quantitated by EPR spectroscopy. This provides a ready means of determining whether TEMPOL-H is present in experimental lenses and whether it is in the oxidized or reduced state. […] TEMPOL-H can in turn be oxidized to the nitroxide by dehydrogenases and activated oxygen species, such as singlet oxygen.
as §4
Following lens incubation, lenses were rinsed, then homogenized in buffer and aliquots of the homogenate analyzed by EPR. […] Only following treatment of the lens extract with ferricyanide was the nitroxide detected.

A short description of data set [6]: Systemic delivery of TEMPOL-H by osmotic pump, plasma and eye concentrations. Conditions: subcutaneous osmotic pump, 2 ml of 100 mM over 7 or 14 days. The format is in vivo, Sprague Dawley albino rats. The method, then:
as §5
In the rats who received subcutaneous delivery of the hydroxylamine, plasma TEMPOL-H concentrations of 0.25 μM were observed.

As to `CC(=O)Oc1ccccc1C(=O)O` [Aspirin], the “delay of experimental cataracts” value in the data set on experimental cataracts is reported as “shown to delay experimental cataracts”.

As for `O=C(O)COc1nn(Cc2ccccc2)c2ccccc12` [Bendazac], the “protection of lens proteins” value in the data set on lens proteins is on record as “found to protect lens proteins in vitro”. In addition, in [1], the “delay of onset of cataracts” value is on record as “delay the onset of cataracts in x-ray irradiated rats”.

Regarding `CC(C)CC(NC(=O)C1OC1C(=O)O)C(=O)NCCCCNC(=N)N` (stereo not shown) [E-64], in the data set on rat lenses [2], the “prevention of decrement in Rb-86 accumulation associated with H2O2 exposure” value is “neither prevented the decrement in accumulation” and the “effect on Rb-86 accumulation of control lenses” value was “small negative effect on Rb-86 accumulation”.

Take `OO` [H2 O2, hydrogen peroxide]: the “Rb-86 accumulation (internal concentration relative to concentration in the medium)” value with rat lenses [2] (H2O2 bolus 0.25 mM, normal control lenses more than 7-fold) was determined as 5 fold.

For the compound `CC(S)C(=O)NCC(=O)O` (stereo not shown) [MPG, N-(2-mercaptopropionyl) glycine], in the data set on rat lenses [3], the “reduction of the H2O2-induced decrement of tritiated choline concentration” value is recorded as “significant reduction in the decrement of tritiated choline concentration”. Besides, the “detection of MPG in the eye” value in data set [4] is recorded as “detected in the eye”.

With `CC1(C)CC(O)CC(C)(C)N1[O]` [TEMPOL, 4-hydroxy-2,2,6,6-tetramethylpiperidin-1-yloxy], the “protection of cells from oxidative damage” value in the data set with cells is reported as “protects cells from oxidative damage”.

With `CC1(C)CC(O)CC(C)(C)N1O` [TEMPOL-H], the “inhibition of opacification of cultured lenses” value with rat lenses [5] was “clearly and consistently was found to inhibit opacification of the cultured lenses”. The “penetration of the lens from the culture medium” value in the data set with lens (EPR after lens incubation, TEMPOL-H 5 mM) is “does penetrate the lens from the culture medium”. Besides, in the data set on lens (nitroxide detected only following ferricyanide treatment of lens extract), the “redox state within the lens” value is on record as “the highly reducing environment within the lens keeps the compound in the reduced state”. Further, in the data set on cells, the “protection of cells from oxidative damage” value is “affords no such protection”. In the data set with rat lenses [3], the “reduction of the H2O2-induced decrement of tritiated choline concentration” value is “significant reduction in the decrement of tritiated choline concentration”. Besides, the “effect on 3H-choline accumulation in lenses exposed to H2O2, dose response / combination” value in the data set with rat lenses [3] (TEMPOL-H 3 or 4 mM, or 3 mM with MPG 0.5 or 1 mM (FIG. 5)) is recorded as “dose response effect”. The concentration in data set [6] (read-out: concentration in the eye) is 0.02 µM; in data set [6] (read-out: plasma TEMPOL-H concentration), 0.25 µM. In the data set with rat lenses [2] (TEMPOL-H 3 or 4 mM, or 3 mM with MPG 0.5 or 1 mM (FIG. 6)), the “effect on Rb-86 accumulation in lenses exposed to H2O2, dose response / combination” value is “dose response effect”.

Take `CC(=O)Nc1ccc(O)cc1` [acetaminophen]: the “delay of experimental cataracts” value with experimental cataracts is given as “shown to delay experimental cataracts”.

As to `CC(C)Cc1ccc(C(C)C(=O)O)cc1` (stereo not shown) [ibuprofen], in the data set with experimental cataracts, the “delay of experimental cataracts” value is “shown to delay experimental cataracts”.

Consider `CC(C)(CO)[C@@H](O)C(=O)NCCC(=O)NCCS` [pantetheine], for which, in the data set on rat lenses [2], the “prevention of decrement in Rb-86 accumulation associated with H2O2 exposure” value is “neither prevented the decrement in accumulation” and the “effect on Rb-86 accumulation of control lenses” value is “small negative effect on Rb-86 accumulation”.
